Results reported in publication PMC7038073, “Substituted Piperazines as Novel Potential Radioprotective Agents” (Molecules, 2020).
“And” between values parts separate entries of the source, which are not always exact repeats. Identical values can stand only once. Counter-ions that a name gives are not always drawn.

How the values were obtained:
[1] = WST-1 cytotoxicity test, PANC-1; type: cell-based; conditions: human, PANC-1 cells, 48 h, WST-1, mean ± SD of three experiments, read-out: relative viability (%) compared to untreated control; for viability at 48 h, 10 µM: PANC-1, 10 µM; for viability at 48 h, 100 µM: PANC-1, 100 µM
Method: In this study, the cytotoxic effects of nine new compounds (2, 3, 4, 5, 6, 7, 8, 9, 10) were tested on 10 human cell lines (nine cancer and one non-cancer cell line). The cell lines were treated with each compound at concentrations of 10 µM and 100 µM for 48 h. The proliferation capacity of the treated cells was determined by WST-1 test and compared against the proliferation rate of the untreated control cells (100%).
The cell lines Jurkat, MOLT-4, A2780, A549, HT-29, PANC-1, HeLa, MCF-7, SAOS-2, and MRC-5 (all purchased from Sigma Aldrich, Czech Republic) were included in this study. All cell lines were maintained according to the provider’s guidelines, and plated and treated in 96-well plates (500 to 30 × 10^3 cells per well). The tested compounds 2, 3, 4, 5, 6, 7, 8, 9, and 10 were dissolved in 0.1% DMSO and kept in 10 mM stock solutions. Before use, the stock solution was diluted in culture media at ratios of 1:100 and 1:1000. The studied cell lines were treated with the compounds 2, 3, 4, 5, 6, 7, 8, 9, and 10 at concentrations of 10 and 100 µM for 48 h. Control cells were tested in culture media with and without DMSO (0.1%). The cells were also treated with 1 µM doxorubicin as a cytotoxicity control.
The WST-1 (2-(4-iodophenyl)-3-(4-nitrophenyl)-5-(2,4-disulfophenyl)-2H-tetrazolium, monosodium salt) test (Roche, Mannheim, Germany) was used according to the manufacturer’s protocol to determine cell viability in all 10 cell lines 48 h after treatment with the tested compounds. The cells were analyzed in a Tecan Infinite M200 spectrometer (Tecan Group, Männedorf, Switzerland) at 440 nm.

[2] = Safe use evaluation in vivo (MTD, symptoms, blood biochemistry, histopathology); parameters: key to piloerection / ataxia / prostration / tremor / excitation / saber-like tail / stooping / hyper/hypoventilation / drop of eyelids / lacrimation / convulsion: + (mild); ++ (moderate); +++ (severe); conditions: both sexes, mouse, in vivo, ip; BALB/c mice, i.p., two males and two females per group; read-out: MTD (maximum tolerated dose)
Source text: (§1) Mild to moderate signs of intoxication could be observed once the MTD (maximum tolerated dose) was reached. In vivo, MTD is described as the highest dose of a given compound that can be administered before showing signs of toxicity (based on the same dose regimen or series) and whose excess would be expected to be fatal, yielding unreliable results. Therefore, a staged approach (including core and intermediate dose levels) has become a suitable strategy in this regard.
(§2) The symptoms described in Tables S1 (in Supplementary Materials) and S2 (in Supplementary Materials) diminished spontaneously within 2 h. After observing these symptoms, MTD thresholds were set at 100, 200, 100, 200, 2000, and 650 mg/kg for compounds 4, 5, 6, 7, 8, and 10, respectively. Animals receiving MTD were further examined by necropsy 48 h after administration. Plasma (reflecting biochemical changes in blood), intestine with mesentery (site of administration), and liver and kidney (elimination organs) were collected to evaluate the toxic potential of the tested compounds. For evaluation of the impact of the compounds on organ function, we performed blood biochemistry test 48 h after administration. The test focused on seven important indicators: glucose and amylase for normal function of pancreas, alanine aminotransferase (ALT), aspartate aminotransferase (AST), and alkaline phosphatase (ALP) for the normal function of liver, and urea and creatinine for the normal function of kidneys. […] According to Thoolen et al., focal necrosis can be occasionally seen in untreated rodents and therefore is not pathognomonic of hepatotoxicity, which is consistent with our findings.
(§3) Both male and female BALB/c mice (Velaz s r.o., Prague, Czech Republic) with an average weight of 21 ± 0.8 g and 21 ± 0.8 g, respectively, were selected for the safe use evaluation in vivo. The mice were housed in environmentally controlled breeding units (Faculty of Military Health Sciences vivarium; temperature 21 ± 1 °C, 12/12 h light/dark cycle) with access to food (Cerea corp., Pardubice, Czech Republic) and water ad libitum. The acclimatization period of the mice was at least 10 days before each experiment. All experimental procedures and protocols were reviewed and approved by the Ethics Committee of the Faculty of Military Health Sciences in Hradec Kralove, University of Defence in Brno. Compounds 2, 3, 4, 5, 6, 7, 8, 9, and 10 were dissolved in physiological saline solution (B. Braun Melsungen AG, Melsungen, Germany) and injected intraperitoneally (i.p.) into the corresponding mouse groups, which were composed of two males and two females. Several doses were administered to determine the maximum tolerated dose (MTD), which was assessed by close observation for signs of toxicity within the first two hours after administration of the compounds, and then regularly over the following 48 h. The observed symptoms were registered according to the laboratory Animal Science Association UK guidelines (for a detailed description, see [36]. After 48 h, the surviving animals were euthanized with CO2 and evaluated by basic macroscopic necropsy. Venous blood was collected into heparinized tubes (Scanlab Systems, Prague, Czech Republic) and the plasma was separated in a U-320R centrifuge (Boeco, Hamburg, Germany) to further evaluate the toxic potential of the tested compounds. The concentrations of glucose, urea, and creatinine and the levels of alanine aminotransferase (ALT), aspartate aminotransferase (AST), alkaline phosphatase (ALP), and amylase were evaluated in a qualified biochemical laboratory of the University Hospital Hradec Kralove (Hradec Kralove, Czech Republic). Additionally, intestine, liver, and kidney samples were collected for histopathologic examination. […]

BALB/c mice = assay: as above; parameters: key to piloerection / ataxia / prostration / tremor / excitation / saber-like tail / stooping / hyper/hypoventilation / drop of eyelids / lacrimation / convulsion: + (mild); ++ (moderate); +++ (severe); conditions: for ALT / AST / Amylase / Glucose / Urea / ALP / Creatinine: plasma 48 h after MTD i.p.
Source text: as §1, §2, §3

A549 cells = assay: MTT assay, IC50 and MTC; conditions: for IC50 fold higher than that for compound 2 / MTC (maximum tolerated concentration): A549 cells, MTT; for MTC (maximum tolerated concentration): 24 h of treatment; for IC50: Homo sapiens, A549, 24 h, read-out: IC50 ± SEM
Method: In further experiments, MTT (3-(4,5-di-methylthiazol-2-yl)-2,5-diphenyltetrazolium bromide) assay was employed to evaluate the toxicological indexes of the newly synthesized compounds, including IC50 (half-maximal inhibitory concentration) and MTC (maximum tolerated concentration).
IC50 and MTC were determined through MTT assays. The MTT assay was performed according to [35]. In brief, the A549 cell line was plated in 96-well plates (100 µL, 9 × 10^3 cells per well) and incubated overnight. The tested compounds were prepared in phosphate buffer saline (PBS; Sigma–Aldrich) and serially diluted in DMEM (Dulbecco’s Modified Eagle Medium). An untreated control was included as a viability standard in each plate. After 24 h of treatment, the viability of A549 cells was measured at 570 nm. All experiments were performed in triplicate. The GraphPad Prism statistics software v5.04 (GraphPad Software Inc., San Diego, CA, USA) was used to calculate the IC50 values for parameter nonlinear regression. Values are expressed as mean ± SEM.

[3] = female BALB/c mice, animals 1 and 2
[4] = female mice, at MTD i.p., animals 1 and 2
[5] = male BALB/c mice, animals 1 and 2
[6] = male mice, at MTD i.p., animals 1 and 2

Row | Compound | viability at 48 h, 10 µM [1] | viability at 48 h, 100 µM [1] | MTD at 48 h [2] | ALT (BALB/c mice; [3]) | AST (BALB/c mice; [3]) | Amylase (BALB/c mice; [3]) | Glucose (BALB/c mice; [3]) | Urea (BALB/c mice; [3]) | drop of eyelids (BALB/c mice; [4]) | tremor (BALB/c mice; [4]) | ALP (BALB/c mice; [5]) | ALT (BALB/c mice; [5]) | AST (BALB/c mice; [5]) | Amylase (BALB/c mice; [5]) | Creatinine (BALB/c mice; [5]) | Glucose (BALB/c mice; [5]) | Urea (BALB/c mice; [5]) | IC50 fold higher than that for compound 2 (A549 cells) | MTC (maximum tolerated concentration) (A549 cells) | IC50 (A549 cells) | further results
1 | COc1ccc(NCCCN2CCN(CCO)CC2)cc1.Cl.Cl.Cl [Compound 7, 2-(4-(3-((4-methoxyphenyl)amino)propyl)piperazin-1-yl)ethanol trihydrochloride] | 99 ± 10% | 116 ± 3% | 200 mg/kg | 22 U/L and 33 U/L | 52 U/L and 71 U/L | 2501 U/L and 1496 U/L | 241 mg/dL and 178 mg/dL | 40 mg/dL | + | ++ | 78 U/L and 55 U/L | 19 U/L and 29 U/L | 48 U/L and 66 U/L | 2272 U/L and 1858 U/L | 23 µg/dL and 34 µg/dL | 244 mg/dL and 194 mg/dL | 35 mg/dL and 38 mg/dL | 63.8 fold | 0.39 mM | 2550 ± 210 µM | hyper/hypoventilation (BALB/c mice; [4]): ++; prostration (BALB/c mice; [4]): +; drop of eyelids (BALB/c mice; [6]): +; hyper/hypoventilation (BALB/c mice; [6]): ++; prostration (BALB/c mice; [6]): ++; tremor (BALB/c mice; [6]): ++; weight at 24 h (%) (BALB/c mice; [6]): -0.3% and -1.5%; weight at 48 h (%) (BALB/c mice; [6]): 0.0% and -3.7%
2 | Cl.Cl.Cl.OCCN1CCN(CCCNc2ccccc2)CC1 [Compound 5, 2-(4-(3-(phenylamino)propyl)piperazin-1-yl)ethanol trihydrochloride] | 86 ± 16% | 115 ± 7% | 200 mg/kg | 29 U/L and 22 U/L | 65 U/L and 44 U/L | 2531 U/L and 2489 U/L | 187 mg/dL and 192 mg/dL | 65 mg/dL and 58 mg/dL | + | + | 37 U/L and 38 U/L | 28 U/L and 29 U/L | 58 U/L and 59 U/L | 1757 U/L and 2008 U/L | 23 µg/dL and 21 µg/dL | 185 mg/dL and 175 mg/dL | 31 mg/dL and 33 mg/dL | 33.8 fold | 0.05 mM | 1350 ± 120 µM | ALP (BALB/c mice; [3]): 88 U/L and 80 U/L; ataxia (BALB/c mice; [4]): +; hyper/hypoventilation (BALB/c mice; [4]): ++; ataxia (BALB/c mice; [6]): ++ and +; drop of eyelids (BALB/c mice; [6]): +; hyper/hypoventilation (BALB/c mice; [6]): ++; lacrimation (BALB/c mice; [6]): +; prostration (BALB/c mice; [6]): ++; saber-like tail (BALB/c mice; [6]): +; tremor (BALB/c mice; [6]): ++
3 | Cc1cc(OCC(O)CN2CCN(CCO)CC2)ccc1Cl.Cl.Cl (stereo not shown) [Compound 4, 1-(4-chloro-3-methylphenoxy)-3-(4-(2-hydroxyethyl)piperazin-1-yl)propan-2-ol dihydrochloride] | 97 ± 7% | 111 ± 24% | 100 mg/kg | 28 U/L | 93 U/L and 61 U/L | 2632 U/L and 2216 U/L | 237 mg/dL and 228 mg/dL | 65 mg/dL and 38 mg/dL | + | – | 77 U/L and 63 U/L | 41 U/L and 43 U/L | 124 U/L and 121 U/L | 1905 U/L and 2464 U/L | 79 µg/dL and 45 µg/dL | 226 mg/dL and 227 mg/dL | 39 mg/dL and 53 mg/dL | 16.0 fold | 0.05 mM | 640 ± 30 µM | histopathological change: focal necrosis (BALB/c mice; at MTD i.p., necropsy 48 h after administration, one animal each): one small focus; ALP (BALB/c mice; [3]): 83 U/L and 76 U/L; Creatinine (BALB/c mice; [3]): 78 µg/dL and 79 µg/dL; prostration (BALB/c mice; [4]): +; weight at 24 h (%) (BALB/c mice; [4]): -5.7% and -4.1%; weight at 48 h (%) (BALB/c mice; [4]): -7.3% and -7.9%; hyper/hypoventilation (BALB/c mice; [6]): +; prostration (BALB/c mice; [6]): +; weight at 24 h (%) (BALB/c mice; [6]): -2.6% and -3.0%; weight at 48 h (%) (BALB/c mice; [6]): -4.6% and -3.7%
4 | Cl.Cl.OC(CNc1ccccc1)CNc1ccccc1 [Compound 9, 1,3-bis(phenylamino)propan-2-ol dihydrochloride] | 93 ± 12% | 118 ± 5% | – | – | – | – | – | – | – | – | – | – | – | – | – | – | – | 6.0 fold | 0.09 mM | 240 ± 10 µM | –
5 | OCCN1CCN(CC(O)CN2CCN(CCO)CC2)CC1 [Compound 8, 1.3-bis [4-(2-hydroxyethyl)piperazin-1-yl)propan-2-ol tetrahydrochloride] | 98 ± 9% | 117 ± 11% | 2000 mg/kg | 20 U/L and 23 U/L | 78 U/L and 67 U/L | 1798 U/L and 2455 U/L | 171 mg/dL and 210 mg/dL | 35 mg/dL and 40 mg/dL | – | + | 71 U/L and 82 U/L | 26 U/L and 22 U/L | 65 U/L and 56 U/L | 2674 U/L and 2327 U/L | 57 µg/dL and 56 µg/dL | 202 mg/dL and 249 mg/dL | 41 mg/dL and 37 mg/dL | 625 fold | 6.25 mM | > 25000 µM | ALP (BALB/c mice; [3]): 121 U/L and 81 U/L; Creatinine (BALB/c mice; [3]): 79 µg/dL; excitation (BALB/c mice; [4]): +; excitation (BALB/c mice; [6]): +; tremor (BALB/c mice; [6]): +; weight at 24 h (%) (BALB/c mice; [6]): -3.8%; weight at 48 h (%) (BALB/c mice; [6]): -2.9%
